In brackets after ≈: the same amount, converted by molar mass. Blank lines part the entries; values can stand above or below the compound they belong to.
Tests used:
[1] = system: Human immunodeficiency virus 1; assay: Antiviral activity against HIV1 3B infected in human MT2 cells assessed as reduction in virus-induced cell death; format: functional; conditions: Human immunodeficiency virus 1, 3B
[2] = Cytotoxicity against human MT2 cells; format: cell-based; conditions: read-out: TC50 (the source's name)
[3] = molecular target: Human immunodeficiency virus type 1 reverse transcriptase (Human immunodeficiency virus 1) (UniProt Q72547); assay: Inhibition of HIV1 reverse transcriptase at 330 uM
[4] = system: Human immunodeficiency virus 2; assay: Antiviral activity against HIV2 ROD; format: functional, organism-based; conditions: Human immunodeficiency virus 2, ISOLATE ROD
[5] = system: Human immunodeficiency virus 1; assay: Antiviral activity against HIV1 3B; format: functional, organism-based; conditions: Human immunodeficiency virus 1, 3B
[6] = system: Human immunodeficiency virus 1; assay: Antiviral activity against HIV1 SF2; format: functional, organism-based; conditions: Human immunodeficiency virus 1, SF2
[7] = system: Human immunodeficiency virus 2; assay: Antiviral activity against HIV2 LAI; format: functional, organism-based; conditions: Human immunodeficiency virus 2, LAI
[8] = system: Human immunodeficiency virus 1; assay: Antiviral activity against HIV1 NL4-3; format: functional, organism-based; conditions: Human immunodeficiency virus 1, NL4-3
[9] = system: Human immunodeficiency virus 1; assay: Antiviral activity against HIV1 BAL; format: functional, organism-based; conditions: Human immunodeficiency virus 1, BAL
[10] = system: Human immunodeficiency virus 1; assay: Antiviral activity against HIV1 TLAV; format: functional, organism-based; conditions: Human immunodeficiency virus 1, TLAV
[11] = system: Human immunodeficiency virus 1; assay: Antiviral activity against HIV1 JRFL; format: functional, organism-based; conditions: Human immunodeficiency virus 1, JRFL
[12] = system: Human immunodeficiency virus 1; assay: Antiviral activity against HIV1 SF162; format: functional, organism-based; conditions: Human immunodeficiency virus 1, SF162
[13] = system: Human immunodeficiency virus; assay: Antiviral activity against HIV expressing raltegravir-resistant integrase mutants; format: functional, organism-based; conditions: Human immunodeficiency virus 1
[14] = system: Human immunodeficiency virus 1; assay: Antiviral activity against HIV1; format: functional, organism-based
[15] = system: Human immunodeficiency virus 1; assay: Antiviral activity against HIV1 infected in human MT4 cells; format: functional, organism-based; conditions: Human immunodeficiency virus 1, MT4
[16] = system: Human immunodeficiency virus; assay: Antiviral activity against HIV; format: functional, organism-based; conditions: Human immunodeficiency virus 1
[17] = system: Human immunodeficiency virus; assay: Antiviral activity against HIV infected in human MT4 cells assessed as reduction in virus-induced cytopathogenicity; format: functional, organism-based; conditions: Human immunodeficiency virus 1, MT4
[18] = Cytotoxicity against human C8166 cells; format: cell-based; conditions: human, C8166 cells
[19] = system: Human immunodeficiency virus 1; assay: Antiviral activity against HIV1 infected in human C8166 cells assessed as inhibition of virus replication; format: functional, organism-based; conditions: Human immunodeficiency virus 1, C8166
[20] = system: Human immunodeficiency virus 1; assay: Antiviral activity against HIV1 by multi-cycle antiviral assay; format: functional, organism-based
[21] = system: Human immunodeficiency virus 1; assay: Antiviral activity against HIV1 by single-cycle antiviral assay; format: functional, organism-based
[22] = system: Human immunodeficiency virus; assay: Antiviral activity against HIV by XTT assay; format: functional, organism-based; conditions: Human immunodeficiency virus 1
[23] = Inhibition of HIV1 LTR-mediated transcription assessed as drug level causing 50% inhibition of protein/RNA complex formation incubated for 15 mins; parameters: species or system Human immunodeficiency virus

- EC50 [6]: 0.85 µM
- EC50 [7]: 0.85 µM
- EC50 [8]: 0.85 µM
- EC50 [9]: 0.85 µM
- EC50 [10]: 0.85 µM
- EC50 [11]: 0.85 µM
- EC50 [12]: 0.85 µM
SMILES: O=C(C(=O)N1CCN(C(=O)c2ccccc2)CC1)c1c[nH]c2ccccc12

- EC50 [4]: > 150 µM
- EC50 [5]: 8.9 µM
SMILES: O=C1N(Cc2ccccc2Cl)c2cccn2S(=O)(=O)N1Cc1cccc(Cl)c1

- EC50 [15]: 100 µM
SMILES: CCOC(=O)c1cc2c3ccccc3c3ccccc3n2c1C

- EC50 [17]: > 15 µg/mL
SMILES: O=C(O)c1ccc(Nc2nc3cc(C(F)(F)F)ccc3n3cccc23)cc1

- EC50 [17]: > 8 µg/mL
SMILES: O=C(O)c1ccc(OCc2nc3ccccc3n3cccc23)cc1

- EC50 [19]: 3.1 µM
SMILES: CCOC(=O)c1ncc(O)c2c1C(=O)N(CC(c1ccccc1)c1ccccc1)C2=O
- CC50 [18]: 25.2 µM

- EC50 [17]: > 16 µg/mL
SMILES: COc1ccc(OCc2nc3ccccc3n3cccc23)cc1

- EC50 [19]: 9.15 µM
SMILES: CCOC(=O)c1ncc(O)c2c1C(=O)N(CCc1ccc(OC)c(OC)c1)C2=O
- CC50 [18]: 33.5 µM

- EC50 [14]: 0.0017 µM
SMILES: C[C@@H]1CN(C(=O)c2ccccc2)CCN1C(=O)C(=O)c1c[nH]c2ncccc12

- EC50 [17]: > 27 µg/mL
SMILES: COc1ccc(Nc2nc3cc(C(F)(F)F)ccc3n3cccc23)cc1OC

More lines, now with the values behind:

SMILES: O=C1[C@H](Cc2ccc(O)cc2)n2cccc2-c2ccccc2N1CCc1ccc(O)cc1
- IC90 [1]: 0.8 µg/mL (≈ 1.88 µM)
- CC50 [2]: 10 µg/mL (≈ 23.6 µM)

SMILES: O=C1c2cnncc2C2(c3ccccc3)NCCN12 (stereo not given)
- inhibition [3]: 36%

SMILES: O=C1N(Cc2cccc(Cl)c2)c2cccn2S(=O)(=O)N1Cc1cccc(F)c1
- EC50 [4]: > 150 µM
- EC50 [5]: 11 µM

SMILES: CC1=C2C(=O)N(Cc3ccc(F)c(Cl)c3)C(=O)C2=C(O)C(=O)C1c1ccccc1 (stereo not given)
- IC50 [13]: 6.4 µM

SMILES: CN1N=C(N)c2cn([C@H]3CC[C@@H](CO)O3)c3ncnc1c23
- EC50 [14]: 21 µM

SMILES: N#Cc1cn(COC(CO)CO)c2nc(N)nc(O)c12
- IC50 [16]: 3 µM

SMILES: N#Cc1cn(COCCO)c2ncnc(N)c12
- IC50 [16]: 46 µM

SMILES: CCOC(=O)c1ncc(O)c2c1C(=O)N(CCc1ccc(C)cc1)C2=O
- CC50 [18]: 15.5 µM
- EC50 [19]: 2.34 µM

SMILES: O=C1N(Cc2ccccc2Cl)c2cccn2S(=O)(=O)N1Cc1cccc(Br)c1
- EC50 [4]: > 150 µM
- EC50 [5]: 18 µM

SMILES: CSc1c(C#N)c2c(N)ncnc2n1COC(CO)CO
- IC50 [16]: 20 µM

SMILES: CCOC(=O)c1ncc(O)c2c1C(=O)N(CCc1c[nH]c3ccccc13)C2=O
- CC50 [18]: 26.7 µM
- EC50 [19]: 9.37 µM

SMILES: O=C1NC(c2ccc(O)cc2)c2c(-c3ccccc3)n[nH]c21 (stereo not given)
- EC50 [20]: 1.4 µM
- EC50 [21]: 1.8 µM

SMILES: CCOC(=O)c1ncc(O)c2c1C(=O)N(CCc1ccc(F)cc1)C2=O
- CC50 [18]: 13.2 µM
- EC50 [19]: 1.65 µM

SMILES: COC(=O)CCC1=C2C(=O)N(Cc3ccc(F)c(Cl)c3)C(=O)C2=C(O)C(=O)C1C(C)C (stereo not given)
- IC50 [13]: 7.1 µM

SMILES: CCOC(=O)c1cc2c3cccc(OC)c3c3c(N)cccc3n2c1C
- EC50 [15]: 60 µM

SMILES: O=Cc1ccc2n1[C@@H](Cc1ccccc1)C(=O)Nc1ccccc1-2
- IC90 [1]: > 0.29 µg/mL

SMILES: CCCCCCCCC(=O)NC1=NN(C)c2ncnc3c2c1cn3[C@@H]1O[C@H](CO)[C@@H](O)[C@H]1O
- IC50 [22]: > 100 µM

SMILES: COc1cc2c(cc1OCCC(=O)Nc1cc(C(=O)Nc3cc(C(=O)Nc4cc(C(=O)NCCC(=N)N)n(C)c4)n(C)c3)n(C)c1)N=C[C@@H]1CCCN1C2=O
- AC50 [23]: 15 µM

SMILES: CC1=C2C(=O)N(Cc3ccc(F)c(Cl)c3)C(=O)C2=C(O)C(=O)C1C (stereo not given)
- IC50 [13]: 6.7 µM
